Counter-ions that a name gives are not always drawn.

What all share (assay type): biochemical
Test [1] has as its target FLT3 kinase (FLT3 kinase domain alone, Upstate) (Homo sapiens (Human), UniProt P36888). In words: FLT3 kinase assay ([33P] incorporation into substrate). Conditions: 100 μM ATP, 30° C., 30 minutes; read-out: IC50 against FLT3. As for the experimental part: (§1) Inhibition of FLT3 kinase activity by compounds disclosed herein was quantified by measuring the amount of [^33P] incorporated into the substrate in the presence of a test compound. Briefly, a reaction mixture of 25 μL final volume containing 5 ng of FLT3 kinase (FLT3 kinase domain alone, Upstate), 5 μg of the substrate [(Poly (Glu-Tyr, 4:1), Sigma], kinase reaction buffer (20 mM MOPS pH 7.0, 1 mM EDTA, 5% glycerol, 0.01% Brij-35, 0.1% β-mercaptoethanol, 1 mg/mL BSA, 100 μM ATP, 0.1 μCi per well [^33P]-γ-ATP (2,500-3,000 Ci/mmol)), and a test compound (diluted from 9 μM to the desired final concentration by 4% DMSO) or DMSO (as the control) was incubated at 30° C. for 30 minutes. The reaction was stopped by adding 5 μL of 3% phosphoric acid solution. The resultant solution (30 μL) was later harvested by a UniFilter Plate GF/B (PerkinElmer) followed by adding 30 μL of the scintillation cocktail (MicroScint 20, PerkinElmer) to the well. The radioactivity retained on the filter membrane was measured by a luminescence counter (PerkinElmer). The results were analyzed by using linear regression software (GraphPad Prism 4; GraphPad Software Inc.).

Test [2] has as its target PDGFR-β kinase (recombinant N-terminal 6×His-tagged PDGFR-β kinase domain) (Homo sapiens (Human), UniProt P09619). The experiment in a line: PDGFR-β kinase assay ([33P] incorporation into substrate). Conditions: 30 nM ATP, 30° C., 30 minutes; read-out: IC50 (nM) PDGFRβ. As for the experimental part:
as §1, with “of PDGFR-β” for “of FLT3”, “containing 55” for “containing 5”, “kinase (obtained by purifying recombinant N-terminal 6×His-tagged PDGFR-β” for “kinase (FLT3”, “domain construct expressed by baculovirus), 2.5” for “domain alone, Upstate), 5”, “substrate [Poly” for “substrate [(Poly”, “BSA, 2 mM MnCl2, 30 nM” for “BSA, 100 μM”

Test [3] concerns the target C-kit kinase (recombinant N-terminal 6×His-tagged C-kit kinase domain) (Homo sapiens (Human), UniProt P10721). In words: C-kit kinase assay ([33P] incorporation into substrate). To be noted: 100 μM ATP, 30° C., 30 minutes. As for the experimental part:
Inhibition of C-kit kinase activity by compounds disclosed herein was quantified by measuring the amount of [^33P] incorporated into the substrate in the presence of a test compound. Briefly, a reaction mixture of 25 μL final volume containing 5 ng of C-kit kinase (obtained by purifying recombinant N-terminal 6×His-tagged C-kit kinase domain construct expressed from baculovirus), 5 μg of the substrate [Poly (Glu-Tyr, […], Sigma], kinase reaction buffer (8 mM MOPS/NaOH pH7.0, 0.2 mM EDTA, 10 mM MnCl2, 0.5% glycerol, 0.001% Brij-35, 0.01%, 2-mercaptoethanol, 0.1 mg/ml BSA, 100 μM ATP, 0.1 μCi per well [^33P]-γ-ATP (2,500-3,000 Ci/mmol)), and a test compound (diluted from 9 μM to the desired final concentration by 4% DMSO) or DMSO (as the control) was incubated at 30° C. for 30 minutes. The reaction was stopped by adding 5 μL of 3% phosphoric acid solution. The resultant solution (30 μL) was later harvested by a UniFilter Plate GF/B (PerkinElmer) followed by adding 30 μL of the scintillation cocktail (MicroScint 20, PerkinElmer) to the well. The radioactivity retained on the filter membrane was measured by a luminescence counter (PerkinElmer). The results were analyzed by using linear regression software (GraphPad Prism 4; GraphPad Software Inc.).

Chain of C-kit kinase (recombinant N-terminal 6×His-tagged C-kit kinase domain) (P10721 589-937): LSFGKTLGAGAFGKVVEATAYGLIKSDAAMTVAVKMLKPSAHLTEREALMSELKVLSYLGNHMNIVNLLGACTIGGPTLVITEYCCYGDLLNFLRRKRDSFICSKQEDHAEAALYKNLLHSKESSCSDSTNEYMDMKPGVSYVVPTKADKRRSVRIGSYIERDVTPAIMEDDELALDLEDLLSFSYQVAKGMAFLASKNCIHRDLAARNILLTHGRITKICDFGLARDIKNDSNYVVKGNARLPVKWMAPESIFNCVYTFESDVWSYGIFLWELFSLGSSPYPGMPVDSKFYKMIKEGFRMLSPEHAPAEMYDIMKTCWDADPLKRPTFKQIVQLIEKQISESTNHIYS
Chain of FLT3 kinase (FLT3 kinase domain alone, Upstate) (P36888 610-943): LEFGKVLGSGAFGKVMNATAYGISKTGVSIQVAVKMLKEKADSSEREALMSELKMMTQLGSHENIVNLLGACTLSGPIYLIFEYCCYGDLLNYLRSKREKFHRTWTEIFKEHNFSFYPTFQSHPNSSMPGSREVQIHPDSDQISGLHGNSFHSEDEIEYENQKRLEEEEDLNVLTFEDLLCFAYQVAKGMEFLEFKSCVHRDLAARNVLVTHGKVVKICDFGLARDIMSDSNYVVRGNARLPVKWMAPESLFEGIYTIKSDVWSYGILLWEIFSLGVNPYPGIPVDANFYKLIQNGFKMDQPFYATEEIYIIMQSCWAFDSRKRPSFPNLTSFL
Chain of PDGFR-β kinase (recombinant N-terminal 6×His-tagged PDGFR-β kinase domain) (P09619 600-962): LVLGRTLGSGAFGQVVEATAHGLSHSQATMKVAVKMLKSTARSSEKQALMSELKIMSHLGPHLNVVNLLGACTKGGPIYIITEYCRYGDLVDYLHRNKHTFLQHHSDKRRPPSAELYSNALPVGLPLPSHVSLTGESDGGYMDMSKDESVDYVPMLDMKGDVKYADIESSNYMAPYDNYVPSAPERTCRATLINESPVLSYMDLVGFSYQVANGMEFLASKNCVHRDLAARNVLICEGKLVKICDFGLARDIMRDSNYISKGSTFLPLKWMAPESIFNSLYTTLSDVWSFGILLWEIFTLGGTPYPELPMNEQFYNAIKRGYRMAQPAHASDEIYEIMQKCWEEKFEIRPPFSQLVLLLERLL

The term IC50 denotes the midpoint of a concentration-inhibition curve. Take `Nc1ccc(-c2n[nH]c3c2Cc2sccc2-3)cc1` [Example-2, 4-(4,7-Dihydro-1-thia-4,5-diaza-cyclopenta[a]pentalen-6-yl)-phenylamine hydrochloride]: the IC50 in test [1] was under 100 nM; in test [2] it was 859 nM; in test [3] it was 201 nM. The corresponding values for `Oc1cccc(Nc2ccc(-c3n[nH]c4c3Cc3sccc3-4)cc2)c1` [Example-10, 3-[4-(4,7-Dihydro-1-thia-4,5-diaza-cyclopenta[a]pentalen-6-yl)-phenylamino]-phenol] are under 100 nM, 118 nM and 139 nM. The corresponding values for `COc1ccc(-c2n[nH]c3c2Cc2sc(-c4ccncc4)cc2-3)cc1` [Example-69, 6-(4-Methoxy-phenyl)-2-pyridin-4-yl-4,7-dihydro-1-thia-4,5-diaza-cyclopenta[a]pentalene] are under 100 nM, 316 nM and 22 nM. `COc1ccc(-c2n[nH]c3c2Cc2sc(-c4cccnc4)cc2-3)cc1` [Example-70, 6-(4-Methoxy-phenyl)-2-pyridin-3-yl-4,7-dihydro-1-thia-4,5-diaza-cyclopenta[a]pentalene]: the IC50 in test [1] was under 100 nM; in test [2], 479 nM; in test [3], 24.8 nM. As to `COc1ccc(-c2n[nH]c3c2Cc2sc(-c4ccc(N)nc4)cc2-3)cc1` [Example-78, 5-[6-(4-Methoxy-phenyl)-4,7-dihydro-1-thia-4,5-diaza-cyclopenta[a]pentalen-2-yl]-pyridin-2-ylamine], the IC50 in test [1] was under 100 nM; in test [2], 363 nM; in test [3], 27.5 nM.

For the compound `COc1ccc(-c2n[nH]c3c2Cc2sc(-c4ccc(NC(=O)CN5CCCC5)nc4)cc2-3)cc1` [Example-82, N-{5-[6-(4-Methoxy-phenyl)-4,7-dihydro-1-thia-4,5-diaza-cyclopenta[a]pentalen-2-yl]-pyridin-2-yl}-2-pyrrolidin-1-yl-acetamide], the IC50 is under 100 nM in test [1], 176 nM in test [2] and 12.2 nM in test [3].

As to `c1cc2c(s1)Cc1c(-c3ccc(N4CCOCC4)cc3)n[nH]c1-2` [Example-85, 6-(4-Morpholin-4-yl-phenyl)-4,7-dihydro-1-thia-4,5-diaza-cyclopenta[a]pentalene], in test [1], the IC50 was under 100 nM.

On to `COc1ccc(-c2n[nH]c3c2Cc2sc(-c4cccc(N)c4)cc2-3)cc1` [Example-86, 3-[6-(4-Methoxy-phenyl)-4,7-dihydro-1-thia-4,5-diaza-cyclopenta[a]pentalen-2-yl]-phenylamine], for which, in test [1], the IC50 is under 100 nM. As to `COc1ccc(-c2n[nH]c3c2C(=O)c2sc(-c4ccc(N)nc4)cc2-3)cc1` [Example-87, 2-(6-Amino-pyridin-3-yl)-6-(4-methoxy-phenyl)-4H-1-thia-4,5-diaza-cyclopenta[a]pentalen-7-one], the IC50 in test [1] is under 100 nM. With `Nc1ccc(-c2cc3c(s2)Cc2c(-c4ccc(N5CCOCC5)cc4)n[nH]c2-3)cn1` [Example-88, 5-[6-(4-Morpholin-4-yl-phenyl)-4,7-dihydro-1-thia-4,5-diaza-cyclopenta[a]pentalen-2-yl]-pyridin-2-Ylamine hydrochloride], the IC50 in test [1] is under 100 nM. The same measure, in the same setting: with `CN1CCN(c2ccc(-c3n[nH]c4c3Cc3sc(-c5ccc(N)nc5)cc3-4)cc2)CC1` [Example-89, 5-{6-[4-(4-Methyl-piperazin-1-yl)-phenyl]-4,7-dihydro-1-thia-4,5-diaza-cyclopenta[a]pentalen-2-yl}-pyridin-2-ylamine hydrochloride] the figure was under 100 nM. The same measure, in the same setting: with `COc1ccc(-c2n[nH]c3c2Cc2sc(-c4cncc(N)c4)cc2-3)cc1` [Example-91, 5-[6-(4-Methoxy-phenyl)-4,7-dihydro-1-thia-4,5-diaza-cyclopenta[a]pentalen-2-yl]-pyridin-3-ylamine hydrochloride] the figure was under 100 nM; with `Nc1ccc(-c2cc3c(s2)Cc2c(-c4ccc(O)cc4)n[nH]c2-3)cn1` [Example-92, 4-[2-(6-Amino-pyridin-3-yl)-4,7-dihydro-1-thia-4,5-diaza-cyclopenta[a]pentalen-6-yl]-phenol], under 100 nM; with `Oc1ccc(-c2n[nH]c3c2Cc2sccc2-3)cc1` [Example-93, 4-(4,7-Dihydro-1-thia-4,5-diaza-cyclopenta[a]pentalen-6-yl)-phenol], under 100 nM.

Source of the values: patent US8853207B2 (Development Center for Biotechnology, priority 2012, dated 2014).
